Experimental data: patent US12448394B2, “Heterocyclic pyrazole derivatives as type III receptor tyrosine kinase inhibitors” (DEVELOPMENT CENTER FOR BIOTECHNOLOGY, priority 2019, dated 2025)
Like-named read-outs stand apart in the source and are kept apart here.

Columns and labels:
[1] = system: HCC827 NSCLC cell with EGFR exon 19 deletion mutation; experiment: HCC827 cell proliferation assay (counter screen); type: cell-based, human; conditions: HCC827 cells, 72 hours treatment, CellTiter96, read-out: anti-proliferation activity HCC827 EGFR Exon19 del, IC50 ranking
Procedure, shortened: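 HCC827 cells (EGFR exon 19 deletion) were seeded at 8000 cells/well in RPMI1640 with 10% FBS, then exposed to increasing compound concentrations for 72 h at 37 °C. Viability was read by CellTiter96 AQueous One (MTS), absorbance 490 nm after 2–4 h.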

[2] = target: T1, PDGFRα kinase (Homo sapiens, UniProt P16234); experiment: PDGFRα kinase assay (AlphaScreen); type: biochemical; conditions: read-out: Ranking of IC50 values, PDGFRα
T1 construct: purchased SignalChem
Procedure, shortened: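 IC50 values came from duplicate serial dilutions, with product read by AlphaScreen. The reaction ran 30 min at 30 °C, then EDTA stop: 1.5 ng recombinant enzyme, biotin-poly(Glu4:Tyr1) substrate, 10 μM ATP, 10 mM MOPS pH 7.0, 10 mM MgCl2.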

[3] = system: Molm-14 human acute myeloid leukemia cell with FLT3-ITD mutation; experiment: Molm-14 cell proliferation assay (CellTiter 96); type: cell-based; conditions: Molm-14 cells, 72 hours treatment, CellTiter96, read-out: anti-proliferation activity Molm-14 (FLT3-ITD), IC50 ranking
Procedure, shortened: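 Molm-14 (FLT3-ITD AML) cells in RPMI 1640 with 10% heat-inactivated FBS were seeded at 25000 cells/well, incubated overnight at 37° C, 5% CO2, then treated with increasing compound concentrations for 72 hours. Viability was read as absorbance at 490 nm after 2˜4 hours with CellTiter96 AQueous One reagent.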

[4] = system: MV4-11 human acute myeloid leukemia cell with FLT3-ITD mutation; experiment: MV4-11 cell proliferation assay (CellTiter 96); type: cell-based; conditions: MV4-11 cells, 72 hours treatment, CellTiter96, read-out: anti-proliferation activity MV4-11 (FLT3-ITD), IC50 ranking
Procedure, shortened: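 Cells seeded at 6500/well in IMDM with 10% heat-inactivated FBS, left overnight at 37 °C, 5% CO2, then exposed to increasing compound concentrations for 72 h. Viability read as absorbance at 490 nm after 2–4 h with CellTiter96 AQueous One reagent.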

[5] = target: T2, MET kinase (Homo sapiens, UniProt P08581); experiment: MET kinase assay (AlphaScreen, counter screen); type: biochemical; conditions: read-out: Ranking of IC50 values, MET
T2 construct: purchased SignalChem
Procedure, shortened: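 IC50 came from duplicate serial dilutions, with AlphaScreen detection of phosphorylated biotin-poly(Glu4:Tyr1). The reaction used 1 ng recombinant MET, 10 µM ATP […], and MOPS pH 7.0/MgCl2 buffer, ran 45 min at 30 °C, and was quenched with EDTA.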

[6] = system: A375 melanoma cell with BRAF V600E mutation; experiment: A375 cell proliferation assay (counter screen); type: cell-based, human; conditions: 72 hours treatment, CellTiter96, read-out: anti-proliferation activity A375 BRAF V600E, IC50 ranking
Procedure, shortened: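 A375 cells (BRAF V600E) seeded at 2000 cells/well in DMEM with 10% FBS, settled overnight at 37° C, 5% CO2, then exposed to increasing compound concentrations for 72 hours. Viability read by MTS-type CellTiter96 AQueous reagent, absorbance at 490 nm after 2–4 hours.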

[7] = Homo sapiens, A-375, A375 cells

T2 sequence (P08581 25-1390): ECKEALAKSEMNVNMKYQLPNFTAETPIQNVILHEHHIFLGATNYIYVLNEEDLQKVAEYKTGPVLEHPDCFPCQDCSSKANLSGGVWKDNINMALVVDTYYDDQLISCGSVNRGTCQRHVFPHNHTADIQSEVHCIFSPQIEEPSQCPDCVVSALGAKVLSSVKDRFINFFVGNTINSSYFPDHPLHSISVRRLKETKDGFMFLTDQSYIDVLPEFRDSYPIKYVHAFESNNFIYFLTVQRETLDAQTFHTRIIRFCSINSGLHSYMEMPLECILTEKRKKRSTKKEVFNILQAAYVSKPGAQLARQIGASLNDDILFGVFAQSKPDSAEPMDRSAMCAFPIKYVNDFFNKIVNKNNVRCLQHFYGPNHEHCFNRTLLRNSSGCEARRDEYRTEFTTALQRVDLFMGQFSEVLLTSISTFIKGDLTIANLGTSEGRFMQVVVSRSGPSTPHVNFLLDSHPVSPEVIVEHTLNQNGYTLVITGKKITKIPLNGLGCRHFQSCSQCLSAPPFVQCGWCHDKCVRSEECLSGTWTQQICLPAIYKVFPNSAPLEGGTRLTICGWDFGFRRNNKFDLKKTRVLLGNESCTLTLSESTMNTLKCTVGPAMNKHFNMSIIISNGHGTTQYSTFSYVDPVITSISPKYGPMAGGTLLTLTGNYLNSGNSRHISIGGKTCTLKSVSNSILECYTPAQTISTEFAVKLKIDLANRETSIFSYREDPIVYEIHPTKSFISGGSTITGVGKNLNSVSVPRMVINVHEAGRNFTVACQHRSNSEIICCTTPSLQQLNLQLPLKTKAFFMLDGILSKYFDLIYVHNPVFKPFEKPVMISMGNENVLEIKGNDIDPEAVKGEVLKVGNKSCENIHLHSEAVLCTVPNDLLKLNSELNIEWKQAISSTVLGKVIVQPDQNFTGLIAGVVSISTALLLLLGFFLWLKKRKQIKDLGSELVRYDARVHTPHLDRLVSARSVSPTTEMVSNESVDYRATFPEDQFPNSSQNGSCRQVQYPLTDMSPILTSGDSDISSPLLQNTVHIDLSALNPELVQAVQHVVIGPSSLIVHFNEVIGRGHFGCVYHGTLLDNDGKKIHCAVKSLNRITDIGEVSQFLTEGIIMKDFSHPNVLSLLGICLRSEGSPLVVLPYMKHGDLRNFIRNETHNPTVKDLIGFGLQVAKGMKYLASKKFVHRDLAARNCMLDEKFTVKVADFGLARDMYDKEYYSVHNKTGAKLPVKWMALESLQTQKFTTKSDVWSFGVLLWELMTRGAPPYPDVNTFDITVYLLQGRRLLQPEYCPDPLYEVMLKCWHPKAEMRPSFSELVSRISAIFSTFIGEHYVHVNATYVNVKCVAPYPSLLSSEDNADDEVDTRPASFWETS
T1 sequence (P16234 24-1089): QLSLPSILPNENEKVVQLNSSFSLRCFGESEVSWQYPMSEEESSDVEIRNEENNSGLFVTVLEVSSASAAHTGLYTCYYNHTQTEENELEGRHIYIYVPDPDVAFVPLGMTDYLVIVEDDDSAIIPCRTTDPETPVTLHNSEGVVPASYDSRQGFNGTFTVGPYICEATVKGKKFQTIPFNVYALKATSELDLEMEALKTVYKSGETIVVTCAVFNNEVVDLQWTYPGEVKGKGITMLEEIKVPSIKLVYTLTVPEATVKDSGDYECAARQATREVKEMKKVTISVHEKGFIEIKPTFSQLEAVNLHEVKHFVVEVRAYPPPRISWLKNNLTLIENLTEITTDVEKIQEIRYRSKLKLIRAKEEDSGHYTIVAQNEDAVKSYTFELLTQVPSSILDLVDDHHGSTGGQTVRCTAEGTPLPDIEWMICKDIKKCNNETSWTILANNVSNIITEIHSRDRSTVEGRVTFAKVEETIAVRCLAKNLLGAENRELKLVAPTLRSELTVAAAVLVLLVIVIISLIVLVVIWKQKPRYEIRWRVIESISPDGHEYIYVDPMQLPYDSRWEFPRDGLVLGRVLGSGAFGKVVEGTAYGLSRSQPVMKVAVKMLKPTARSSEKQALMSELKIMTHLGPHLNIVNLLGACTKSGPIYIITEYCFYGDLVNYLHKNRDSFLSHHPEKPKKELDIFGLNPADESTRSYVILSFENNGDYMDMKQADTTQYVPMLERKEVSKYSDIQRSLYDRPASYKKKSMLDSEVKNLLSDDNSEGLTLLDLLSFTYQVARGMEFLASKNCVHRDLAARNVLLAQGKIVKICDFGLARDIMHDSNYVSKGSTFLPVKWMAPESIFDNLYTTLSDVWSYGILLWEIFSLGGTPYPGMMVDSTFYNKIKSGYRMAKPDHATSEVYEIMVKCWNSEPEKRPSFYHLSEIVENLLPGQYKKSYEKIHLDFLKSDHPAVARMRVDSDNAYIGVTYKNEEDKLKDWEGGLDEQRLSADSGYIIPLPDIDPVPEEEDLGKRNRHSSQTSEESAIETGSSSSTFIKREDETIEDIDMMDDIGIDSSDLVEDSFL

SMILES | IC50 [2] | IC50 ([3]; Homo sapiens) | IC50 ([4]; Homo sapiens, MV4-11, 72 h) | IC50 [5] | IC50 [3] | IC50 [4] | IC50 ([1]; Homo sapiens) | IC50 [6, 7] | IC50 [1] | IC50 ([6]; A375 cells)
CCC(c1ccc(-c2cc3c(s2)Cc2c(-c4ccc5cnn(C)c5c4)n[nH]c2-3)cc1)N1CCOCC1 (stereo not drawn) [Compound 28, 4-(1-(4-(3-(1-methyl-1H-indazol-6-yl)-1,4-dihydro-thieno[2′,3′:4,5]cyclopenta [1,2-c]pyrazol-6-yl)phenyl)propyl)morpholine] | 10 to 30 nM | 30 to 100 nM | 30 to 100 nM | > 1000 nM |  |  | > 10000 nM | > 10000 nM |  | 
COc1cc(CN2CCOCC2)ccc1-c1cc2c(s1)Cc1c(-c3ccc4cnn(C)c4c3)n[nH]c1-2 [Compound 29, 4-(3-methoxy-4-(3-(1-methyl-1H-indazol-6-yl)-1,4-dihydrothieno [2′,3′:4,5]cyclopenta[1,2-c]pyrazol-6-yl)benzyl) morpholine] | 10 to 30 nM | 30 to 100 nM | < 30 nM | > 1000 nM |  |  | > 10000 nM | > 10000 nM |  | 
Cn1ncc2ccc(-c3n[nH]c4c3Cc3sc(-c5cncc(C(=O)N6CCOCC6)c5)cc3-4)cc21 [Compound 31, (5-(3-(1-methyl-1H-indazol-6-yl)-1,4-dihydrothieno[2′,3′:4,5]cyclopenta[1,2-c]pyrazol-6-yl)pyridin-3-yl) (morpholino)methanone] | 100 to 300 nM | < 30 nM | < 30 nM | > 1000 nM |  |  | 1000 to 10000 nM | 1000 to 10000 nM |  | 
Cn1ncc2ccc(-c3n[nH]c4c3Cc3sc(-c5ccc(CN6CCOCC6)cc5F)cc3-4)cc21 [Compound 32, 4-(3-fluoro-4-(3-(1-methyl-1H-indazol-6-yl)-1,4-dihydrothieno [2′,3′:4,5]cyclopenta [1,2-c]pyrazol-6-yl)benzyl)morpholine] | 10 to 30 nM | 100 to 300 nM | 30 to 100 nM | > 1000 nM |  |  | > 10000 nM | > 10000 nM |  | 
Cc1ccc(-c2cc3c(s2)Cc2c(-c4ccc5cnn(C)c5c4)n[nH]c2-3)cn1 [Compound 33, 3-(1-methyl-1H-indazol-6-yl)-6-(6-methylpyridin-3-yl)-1,4-dihydrothieno [2′,3′:4,5]cyclopenta [1,2-c]pyrazole] | 1 to 10 nM |  |  | > 1000 nM | 30 to 100 nM | 30 to 100 nM |  |  | > 10000 nM | > 10000 nM
Cn1ncc2ccc(-c3n[nH]c4c3Cc3sc(-c5ccc(C(=O)N6CCCCC6)cc5)cc3-4)cc21 [Compound 34, (4-(3-(1-methyl-1H-indazol-6-yl)-1,4-dihydro-thieno[2′,3′:4,5]cyclopenta [1,2-c]pyrazol-6-yl)phenyl)(piperidin-1-yl) methanone] | 30 to 100 nM | 30 to 100 nM | 30 to 100 nM | > 1000 nM |  |  | > 10000 nM | > 10000 nM |  | 
CC(C)Cn1ncc2ccc(-c3n[nH]c4c3Cc3sc(-c5ccc(CN6CCOCC6)cc5)cc3-4)cc21 [Compound 35, 4-(4-(3-(1-isobutyl-1H-indazol-6-yl)-1,4-dihydro-thieno[2′,3′:4,5]cyclopenta [1,2-c]pyrazol-6-yl)benzyl)morpholine] | 30 to 100 nM | 100 to 300 nM | 100 to 300 nM | > 1000 nM |  |  | > 10000 nM | > 10000 nM |  | 
Cn1ncc2ccc(-c3n[nH]c4c3Cc3sc(-c5cccc(C(=O)N6CCOCC6)c5)cc3-4)cc21 [Compound 37, (3-(3-(1-methyl-1H-indazol-6-yl)-1,4-dihydro-thieno[2′,3′:4,5]cyclopenta [1,2-c]pyrazol-6-yl)phenyl)(morpholino) methanone] | 1 to 10 nM | 30 to 100 nM | < 30 nM | > 1000 nM |  |  | > 10000 nM | > 10000 nM |  | 

Further lines, with some results ahead:

IC50 [2] | IC50 ([3]; Homo sapiens) | IC50 ([4]; Homo sapiens, MV4-11, 72 h) | IC50 [5] | IC50 [3] | IC50 [4] | SMILES | IC50 ([1]; Homo sapiens) | IC50 [6, 7] | IC50 [1] | IC50 ([6]; A375 cells)
10 to 30 nM | 30 to 100 nM | < 30 nM | > 1000 nM |  |  | Cn1ncc2ccc(-c3n[nH]c4c3Cc3sc(-c5ccc(C(=O)N6CCCC6)cc5)cc3-4)cc21 [Compound 38, (4-(3-(1-methyl-1H-indazol-6-yl)-1,4-dihydro-thieno[2′,3′:4,5]cyclopenta [1,2-c]pyrazol-6-yl)phenyl)(pyrrolidin-1-yl) methanone] | > 10000 nM | > 10000 nM |  | 
10 to 30 nM | 30 to 100 nM | 30 to 100 nM | > 1000 nM |  |  | Cn1ncc2ccc(-c3n[nH]c4c3Cc3sc(-c5ccc(CN6CCSCC6)cc5)cc3-4)cc21 [Compound 39, 3-(1-methyl-1H-indazol-6-yl)-6-(4-(thiomorpho-linomethyl)phenyl)-1,4-dihydrothieno[2′,3′:4,5] cyclopenta[1,2-c]pyrazole] | > 10000 nM | > 10000 nM |  | 
10 to 30 nM | < 30 nM | < 30 nM | > 1000 nM |  |  | Cn1ncc2ccc(-c3n[nH]c4c3Cc3sc(-c5cnc(C(=O)N6CCOCC6)nc5)cc3-4)cc21 [Compound 41, (5-(3-(1-methyl-1H-indazol-6-yl)-1,4-dihydrothieno[2′,3′:4,5]cyclopenta[1,2-c]pyrazol-6-yl)pyrimidin-2-yl) (morpholino)methanone] | > 10000 nM | > 10000 nM |  | 
10 to 30 nM | 100 to 300 nM | 30 to 100 nM | > 1000 nM |  |  | CC(C)n1ncc2ccc(-c3n[nH]c4c3Cc3sc(-c5ccc(CN6CCOCC6)cc5)cc3-4)cc21 [Compound 42, 4-(4-(3-(1-isopropyl-1H-indazol-6-yl)-1,4-dihydro-thieno[2′,3′:4,5]cyclopenta [1,2-c]pyrazol-6-yl)benzyl)morpholine] | > 10000 nM | > 10000 nM |  | 
1 to 10 nM | 30 to 100 nM | 30 to 100 nM | > 1000 nM |  |  | COc1cc(-c2cc3c(s2)Cc2c(-c4ccc5cnn(C)c5c4)n[nH]c2-3)ccc1C(=O)N1CCOCC1 [Compound 43, (2-methoxy-4-(3-(1-methyl-1H-indazol-6-yl)-1,4-dihydrothieno [2′,3′:4,5]cyclopenta [1,2-c]pyrazol-6-yl)phenyl)(morpholino) methanone] | > 10000 nM | > 10000 nM |  | 
1 to 10 nM | < 30 nM | < 30 nM | > 1000 nM |  |  | Cn1ncc2ccc(-c3n[nH]c4c3Cc3sc(-c5ccc(C(=O)N6CCOCC6)c(F)c5)cc3-4)cc21 [Compound 44, (2-fluoro-4-(3-(1-methyl-1H-indazol-6-yl)-1,4-dihydrothieno[2′,3′:4,5]cyclopenta[1,2-c]pyrazol-6-yl)phenyl)(morpholino) methanone] | > 10000 nM | > 10000 nM |  | 
10 to 30 nM | < 30 nM | < 30 nM | > 1000 nM |  |  | Cn1ncc2ccc(-c3n[nH]c4c3Cc3sc(-c5cnc(N)nc5)cc3-4)cc21 [Compound 45, 5-(3-(1-methyl-1H-indazol-6-yl)-1,4-dihydrothieno [2′,3′:4,5]cyclopenta[l,2-c]pyrazol-6-yl)pyrimidin-2-amine] | > 10000 nM | > 10000 nM |  | 
1 to 10 nM | < 30 nM | < 30 nM | > 1000 nM |  |  | Cn1cc(-c2cc3c(s2)Cc2c(-c4ccc5cnn(C)c5c4)n[nH]c2-3)cc1C(=O)N1CCOCC1 [Compound 46, (1-methyl-4-(3-(1-methyl-1H-indazol-6-yl)-1,4-dihydrothieno[2′,3′:4,5]cyclopenta[1,2-c]pyrazol-6-yl)-1H-pyrrol-2-yl) (morpholino)methanone] | > 10000 nM | > 10000 nM |  | 
1 to 10 nM | < 30 nM | < 30 nM | > 1000 nM |  |  | Cn1ncc2ccc(-c3n[nH]c4c3Cc3sc(-c5ccc(S(=O)(=O)N6CCOCC6)cc5)cc3-4)cc21 [Compound 47, 4-((4-(3-(1-methyl-1H-indazol-6-yl)-1,4-dihydro-thieno[2′,3′:4,5]cyclopenta [1,2-c]pyrazol-6-yl)phenyl)sulfonyl) morpholine] | > 10000 nM | > 10000 nM |  | 
